Here are results for eight compounds from publication PMC7948460, “Volatile allosteric antagonists of mosquito odorant receptors inhibit human-host attraction” (The Journal of Biological Chemistry, 2020).

The subject of series [1] is Ae. albopictus. The series is described as follows: Repellence bioassay, human hand landing counts. The series is classed as in vivo, Aedes albopictus.
The target in series [2] is T1, AgamORco (Anopheles gambiae, UniProt Q7QCC7).
T1 sequence (Q7QCC7 1-478): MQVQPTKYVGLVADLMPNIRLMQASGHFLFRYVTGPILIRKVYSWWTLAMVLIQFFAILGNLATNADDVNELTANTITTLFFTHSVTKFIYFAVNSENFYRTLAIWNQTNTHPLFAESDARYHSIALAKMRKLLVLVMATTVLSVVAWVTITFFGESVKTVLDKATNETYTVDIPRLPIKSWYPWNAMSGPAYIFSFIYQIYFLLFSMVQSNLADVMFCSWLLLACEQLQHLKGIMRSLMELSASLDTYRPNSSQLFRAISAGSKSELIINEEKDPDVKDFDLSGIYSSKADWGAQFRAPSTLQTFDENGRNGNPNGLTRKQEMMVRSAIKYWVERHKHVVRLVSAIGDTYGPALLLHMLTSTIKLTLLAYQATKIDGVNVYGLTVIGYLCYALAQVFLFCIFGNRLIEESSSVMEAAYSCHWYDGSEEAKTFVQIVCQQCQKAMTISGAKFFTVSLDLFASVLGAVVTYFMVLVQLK
The series is described as follows: cell-based.

For series [3], the target named is T2, AaegORco (Aedes aegypti, UniProt Q178U6).
T2 construct: expressed in transfected cells; host or cells: Xenopus laevis oocytes microinjected with cRNA transcribed from the pSP64tRFA vector
T2 sequence (Q178U6 1-478): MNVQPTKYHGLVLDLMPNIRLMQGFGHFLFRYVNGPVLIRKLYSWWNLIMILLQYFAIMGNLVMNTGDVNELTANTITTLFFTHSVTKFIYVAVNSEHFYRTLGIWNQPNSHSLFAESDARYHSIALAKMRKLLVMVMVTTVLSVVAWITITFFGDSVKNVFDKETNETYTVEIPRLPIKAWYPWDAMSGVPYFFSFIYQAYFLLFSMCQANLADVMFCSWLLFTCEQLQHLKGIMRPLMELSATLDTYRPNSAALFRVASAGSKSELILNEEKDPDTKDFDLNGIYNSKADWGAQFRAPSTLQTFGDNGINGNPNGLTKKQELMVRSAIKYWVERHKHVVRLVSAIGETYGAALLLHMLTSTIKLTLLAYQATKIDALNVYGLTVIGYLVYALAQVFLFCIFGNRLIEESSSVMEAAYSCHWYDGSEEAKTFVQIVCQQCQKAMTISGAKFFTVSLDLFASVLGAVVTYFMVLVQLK
Put plainly: Two-microelectrode voltage-clamp recordings of Xenopus laevis oocytes expressing AaegORco, VUAA1-induced currents. It counts as cell-based. The conditions noted are these: 200 μM VUAA1 with equimolar compound; for Normalized response (%) of AaegORco to VUAA1 in combination with compound: printed in picture Fig. 4B. How it is done: Across all treatments, we observed a consistent increase in the third VUAA1-induced response relative to the first and second VUAA1 administrations (Fig. 4A). For this reason, the inhibition level (Fig. 4B) was calculated by normalizing the response amplitude elicited by the second stimulation, to the average current responses elicited by the first and last VUAA1 stimulations.
In vitro transcription and two-microelectrode voltage-clamp electrophysiological recordings were performed as described ([62]). Briefly, ORco of Ae. aegypti (AaegORco; GenBank: BK006142.1) was synthesized using the mMESSAGE mMACHINE SP6 kit (ThermoFisher Scientific) from the linearized pSP64tRFA expression vector. The harvested X. laevis oocytes were manually separated from the ovaries prior to collagenase treatment (8 mg/ml, 30 min, 18 °C) in order to remove the follicular layer. Stage V–VI oocytes were rinsed in washing solution (96 mM NaCl, 2 mM KCl, 5 mM MgCl2, and 5 mM Hepes, pH 7.6) and microinjected with a mixture of 1 μl AaegOrco (3 μg/μl) and 2 μl of double-distilled water. Injected oocytes were incubated at 18 °C for 3 days in Ringer’s solution (96 mM NaCl, 2 mM KCl, 5 mM MgCl2, 0.8 mM CaCl2, and 5 mM Hepes, pH 7.6) supplemented with 5% dialyzed horse serum, 50 μg/ml tetracycline, 100 μg/ml streptomycin, and 550 μg/ml sodium pyruvate. Whole-cell currents were recorded using the two-microelectrode voltage-clamp technique. During recording sessions, the holding potential was maintained at −80 mV using an OC-725C oocyte clamp (Warner Instruments, LLC). Oocytes were placed in a RC-3Z oocyte recording chamber (Warner Instruments) and exposed for 8 s to 200 μM VUAA1 (Innovapharm Ltd), 2,4-octadienal predominantly trans (Sigma-Aldrich), or carvacrol (Sigma-Aldrich). All compounds were solubilized in 200 μl of DMSO prior to the dilutions in the Ringer’s solution. Currents were allowed to return to baseline between odorant applications. Data acquisition and concentration–response analyses were carried out with a Digidata 1550A and the pCLAMP10 software (Molecular Devices). Statistical significance was evaluated with one-way ANOVA followed by Tukey's post test.

Series [4] concerns Bm5 cells. The series is described as follows: Toxicity to the AgamORco/Photina-expressing Bm5 cells during dose-response evaluation. It counts as cell-based. The conditions noted are these: Bombyx mori, Bm5 cells stably expressing AgamORco and Photina.
The mark [5] stands for this setting: 0.01 μL equivalent per cm^2, 5 min.
Where [6] appears, read: 0.04 μL equivalent per cm^2, 5 min.
Setting [7] is: 0.2 μL equivalent per cm^2, 5 min.
Where [8] appears, read: 50 μM ORcoRAM2 (OA), read-out: IC50 in binding competition assay.
Where [9] appears, read: 50 μM ORcoRAM2 (OA), read-out: pIC50 in binding competition assay (converted).
[10] abbreviates: 100 μM ORcoRAM2 (OA), read-out: IC50, inhibition of OA-dependent AgamORco channel activity.
Where [11] appears, read: 100 μM ORcoRAM2 (OA), read-out: pIC50, inhibition of OA-dependent AgamORco channel activity (converted).
The mark [12] stands for this setting: 150 μM ORcoRAM2 (OA), read-out: IC50 in binding competition assay.
The mark [13] stands for this setting: 150 μM ORcoRAM2 (OA), read-out: pIC50 in binding competition assay (converted).

SMILES strings stand for the structures. Values joined by “and” are separate entries in the source; they are usually repeats but may differ in a detail not shown here. Equal entries are not always repeated. Where two headings read alike, the source gives them in different places.

With `CC(C)c1ccc(CO)cc1` [CA, Cumin alcohol], the Mean % repellency in series [1] (setting [5]) was 63.2% and 63.2 ± 11.8%; in series [1] (setting [6]), 78 ± 7%; in series [1] (setting [7]), 99.8 ± 0.7%. The “Average landings (+ st. dev)” value in series [1] (0.01 μL per cm2, 5 min) was determined as 20.1±6.5; in series [1] (0.04 μL per cm2, 5 min) it was 11.8±3.7; in series [1] (0.2 μL per cm2, 5 min), 0.1±0.4.
Consider `CC1=CCC2[C@H](C1)C2(C)C` (stereo partly drawn) [CAR, (1S)-3-Carene], for which, in series [1] (setting [7]), the Mean % repellency came out at 89.8 ± 4.3%. Further, the “Average landings (+ st. dev)” value in series [1] (0.2 μL per cm2, 5 min) was determined as 5.4±2.3.
For `Cc1ccc(C(C)C)cc1O` [CRV, Carvacrol], the IC50 in series [2] (setting [8]) is 26.3 µM; in series [2] (setting [9]), 26.3 µM; in series [2] (setting [10]), 23.4 µM; in series [2] (setting [11]), 23.3 µM; in series [2] (setting [12]), 28.4 µM; in series [2] (setting [13]), 28.4 µM. Besides, the “Reduction of VUAA1-activated currents” value in series [3] was about 85%. Moreover, the “Normalized response (%) of AaegORco to VUAA1 in combination with compound” value in series [3] is recorded as -84.8%. Besides, the Mean % repellency was 67.8% and 67.8 ± 9% in series [1] (setting [5]); 99.1 ± 2% in series [1] (setting [6]); 99.8 ± 0.7% in series [1] (setting [7]). The “Average landings (+ st. dev)” value in series [1] (0.01 μL per cm2, 5 min) stood at 17.6±4.9; in series [1] (0.04 μL per cm2, 5 min), 0.5±1.1; in series [1] (0.2 μL per cm2, 5 min), 0.1±0.4. Besides, the “Concentrations toxic to the cells” value in series [4] is listed as “above 250 μM”.
As for `CCN(CC)C(=O)c1cccc(C)c1` [DEET, N,N-Diethyl-3-methylbenzamide, reference compound], the Mean % repellency in series [1] (setting [5]) is 96.7% and 96.7 ± 2.6%; in series [1] (setting [6]), 100 ± 0%; in series [1] (setting [7]), 100 ± 0%. For the same compound, the “Average landings (+ st. dev)” value is 1.8±1.4 in series [1] (0.01 μL per cm2, 5 min); 0±0 in series [1] (0.04 μL per cm2, 5 min); 0±0 in series [1] (0.2 μL per cm2, 5 min).
For `CC(C)OC(=O)C=Cc1ccccc1` [IPC, Isopropyl cinnamate, reference compound], the Mean % repellency in series [1] (setting [7]) is 96 ± 1.6%. In addition, the “Average landings (+ st. dev)” value in series [1] (0.2 μL per cm2, 5 min) stood at 2.1±0.8.
The like results for `C=CC(C)(CCC=C(C)C)OC(C)=O` (stereo not drawn) [LA, Linalyl acetate] were, in that order, 72.3 ± 15.6% and 14.6±8.1.
On to `CCC/C=C/C=C/C=O` [OCT, (2E,4E)-2,4-Octadienal], for which the IC50 is 41.8 µM in series [2] (setting [8]); 41.8 µM in series [2] (setting [9]); 59.8 µM in series [2] (setting [10]); 59.8 µM in series [2] (setting [11]); 117 µM in series [2] (setting [12]); 117 µM in series [2] (setting [13]). For the same compound, the “Reduction of VUAA1-activated currents” value in series [3] was “approximately 60%”. Further, in series [3], the “Normalized response (%) of AaegORco to VUAA1 in combination with compound” value was -59.5%. In addition, the Mean % repellency in series [1] (setting [5]) was 13.8% and 13.8 ± 12.8%; in series [1] (setting [6]) it was 97.9 ± 2.7%; in series [1] (setting [7]) it was 100 ± 0%. Moreover, the “Average landings (+ st. dev)” value is reported as 47.1±7.0 in series [1] (0.01 μL per cm2, 5 min); 1.1±1.5 in series [1] (0.04 μL per cm2, 5 min); 0±0 in series [1] (0.2 μL per cm2, 5 min).
Turning to `CCc1ccc(NC(=O)CSc2nnc(-c3ccccn3)n2CC)cc1` [ORcoRAM2, reference compound], the 50% effective concentration (EC50) (commonly the concentration needed to bring the measured effect to its halfway point) in series [2] (absence of antagonist, read-out: EC50 of ORco agonist on AgamORco) was 91.3 µM and 91.9 µM and 91 µM.
